From patent US6403618B1, “Agent and method for controlling angiogenesis” (Novactyl, Inc., priority 2000, dated 2002)

Key:
[1] = test system: LoVo cells; assay: Viability by trypan blue dye exclusion; type: cell-based; conditions: 500 μM
Protocol: As in the case of WI-38, LoVo cell viability after fusaric acid treatment was investigated in logarithmically growing and confluent cells, as shown in Tables 2 and 3. In logarithmically growing LoVo cells, approximately 38% of the attached cells were viable after 30 hours of treatment with fusaric acid. When the cells were treated for 78 hours, only 4.5% of the cell population survived the pronounced cytotoxic actions of fusaric acid. […] Thus, LoVo cells are much more sensitive to the cytotoxic actions of fusaric acid in both growing and confluent population of cells in comparison to normal WI-38 cells.

[2] = test system: WI-38 cells; assay: Effect of fusaric acid on growth (cell number); type: cell-based
Text: The remaining cells were spread on the substratum in normal manner without any visible mitosis for 4 days after removal of the drug.

[3] = test system: KB cells; assay: Viability by trypan blue dye exclusion; type: cell-based, human; conditions: confluent cells, 500 μM, 48 h
Protocol: To examine KB cell viability in greater detail, the effects of fusaric acid were studied in logarithmically growing and confluent cells. In logarithmically growing KB cells 70% of the cells were viable after 48 hours in 500 μM fusaric acid. […] Thus, in contrast to LoVo cells, a significant proportion of the population of growing (70%) cells and virtually all (95%) of confluent KB cells resisted the pronounced cytotoxic action of fusaric acid (See Tables 3 and 4, above).

[4] = test system: WI-38 cells; assay: Effect of different doses of fusaric acid on total cell protein; type: cell-based; conditions: WI-38, 1 mM
Protocol: (§1) In initial experiments to examine the effects of fusaric acid on cell growth and viability, WI-38 and LoVo cells were incubated for 24 to 72 hours in medium with or without various doses of fusaric acid (0.1-1 mM). The growth of both WI-38 and LoVo cells was inhibited by 500 μM fusaric acid in a time and dose dependent manner, as shown below in Table 2.

[5] = test system: LoVo cells; assay: as above; type: cell-based
Protocol: as §1

[6] = test system: colon carcinoma LoVo cells; assay: Effect of fusaric acid on growth (cell number); type: cell-based
Protocol: After 30 hours of treatment with 500 μM fusaric acid, there was a prominent decrease in cell number. DNA synthesis was completely (100%) inhibited by 24 hours. When treated with 500 μM fusaric acid, the majority of the LoVo cells acquired a rounded morphology by 48 hours.
These floating cells were not viable. […] However, after 100 hours, an increase in cell number was noted after 25 additional hours.

[7] = test system: MDA-468 cells; assay: DNA synthesis; type: cell-based; conditions: Homo sapiens, by 24 hr, read-out: DNA synthesis inhibited
Protocol: (§2) After 12-24 hours of treatment with 500 μM fusaric acid, there was no further increase in cell number. […] These floating cells were not viable. Within 30 hours of treatment there was a 65% decrease in cell number. […] After 96 hours, less than 10% of the original population remained attached to the dish and no change in cell number was noted after one additional week.

[8] = test system: colon carcinoma cell line; assay: Viability of other human carcinoma cell types; type: cell-based; conditions: 48 hours of treatment
Protocol: (§3) As in previous examples, the following human cell lines were inhibited by similar concentrations of fusaric acid: Prostatic adenocarcinoma, skin carcinoma, colon carcinoma, liver adenocarcinoma and lung adenocarcinoma. For all these cell types, cell viability decreased by approximately 60% after 48 hours of treatment with fusaric acid.

[9] = test system: Prostatic adenocarcinoma cell line; assay: Viability of other human carcinoma cell types; type: cell-based; conditions: 48 hours of treatment
Protocol: as §3

[10] = test system: skin carcinoma cell line; assay: Viability of other human carcinoma cell types; type: cell-based; conditions: 48 hours of treatment
Protocol: as §3

[11] = test system: lung adenocarcinoma cell line; assay: Viability of other human carcinoma cell types; type: cell-based; conditions: 48 hours of treatment
Protocol: as §3

[12] = test system: liver adenocarcinoma cell line; assay: Viability of other human carcinoma cell types; type: cell-based; conditions: 48 hours of treatment
Protocol: as §3

[13] = test system: MDA-468 cells; type: cell-based, human
Protocol: As in the case of WI-38, MDA-468 cell viability after fusaric acid treatment was investigated in logarithmically growing and confluent cells. In logarithmically growing MDA-468 cells, less than 20% of the attached cells were viable after 30 hours of treatment with fusaric acid. When the cells were treated for 48 hours, only 0.1% of the cell population survived the pronounced cytotoxic actions of fusaric acid. […] Thus, MDA-468 cells are extremely sensitive to the cytotoxic actions of fusaric acid in both growing and confluent population of cells in comparison to normal WI-38 lines studied.

[14] = test system: human breast adenocarcinoma MDA-468 cells; assay: Effect of fusaric acid on growth (cell number); type: cell-based
Protocol: as §2

[15] = test system: WI-38 cells; assay: Viability by trypan blue dye exclusion; type: cell-based; conditions: 500 μM
Protocol: To examine WI-38 cell viability in greater detail, the effects of fusaric acid were studied in logarithmically growing and contact inhibited confluent cells (Tables 2 and 3). In logarithmically growing WI-38 cells approximately 76% of the cells were viable after 30 hours of treatment with fusaric acid. When the cells were treated for 78 hours, only 26% of the cell population survived the pronounced cytotoxic actions of fusaric acid.

[16] = logarithmic growth, 30 h, listed as Fusaric Acid
[17] = 500 μM, within 30 hours of treatment

## CCCCc1ccc(C(=O)O)nc1 [fusaric acid]
[1]; confluent cells, 48 h
  % Survival: 40%
[1]; logarithmic growth, 30 h
  % Survival: approximately 38%
[1]; [16]
  % Survival: 38.5%
[1]; logarithmic growth, 78 h
  % Survival: 4.5%
[2]; 30 hours with 500 μM, then 4 days in normal media
  decrease in cell number: 30%
[2]; after removal of fusaric acid, 500 μM for 30 hours
  cells survived: > 95%
[3]
  % Survival: 95%
[4]; 24 h
  Monolayer Protein: 236 μg/dish
[4]; 48 h
  Monolayer Protein: 202 μg/dish
[5]; 1 mM fusaric acid, by 24 hours
  cytotoxicity: extensive cytotoxicity
[5]; LoVo, 0.5 mM, 48 h
  Monolayer Protein: 90 μg/dish
[6]; [17]
  decrease in cell number: 60%
[6]; removal after 30 hours, up to approximately 100 hours
  decline of cell population after removal of the drug: ~80%
[7]
  inhibition at 500 µM: 100%
[8]
  cell viability decreased: approximately 60%
[9]
  cell viability decreased: approximately 60%
[10]
  cell viability decreased: approximately 60%
[11]
  cell viability decreased: approximately 60%
[12]
  cell viability decreased: approximately 60%
[13]; confluent cells, 500 μM, 48 hours
  cells survived: 10%
[13]; logarithmic growth, 30 hours
  attached cells viable: less than 20%
[13]; logarithmic growth, 48 hours
  cell population survived: 0.1%
[14]; [17]
  decrease in cell number: 65%
[14]; drug removed after 30 hours, after 96 hours
  original population remaining attached to the dish: less than 10%
[15]; confluent cells, 48 h
  % Survival: 100%
[15]; [16]
  % Survival: 76.4%
[15]; logarithmic growth, 78 h
  % Survival: 26%
